Patent EP0346760A2, “Derivatives of nigericine, methods for their preparation, compositions containing them and their use” (priority 1988, dated 1989)
In brackets after ≈: the same amount, converted by molar mass.

System: Staph. aureus (285)
Assay: Agar dilution test (Lorian), antibacterial activity
Format: cell-based
Conditions: Staphylococcus aureus; Staph. aureus (285); Müller Hinton Agar, 16 to 18 h at 37°C; read-out: MIC
Experimental: (§1) Die antibakterielle Wirksamkeit der erfindungsgemäßen Verbindungen wurde im Agar-Verdünnungstest nach Lorian (Antibiotics in Laboratory Medicine, Williams & Wilkins, Baltimore/London, 1980) bestimmt. Dabei wurden die Präparate in einer geometrischen Verdünnungsreihe mit dem Faktor 2 in Müller Hinton Agar verdünnt. Eine Petrischale enthielt nur Müller Hinton Agar und diente zur Kontrolle des Bakterienwachstums. Die Petrischalen wurden dann mit einem Denley-Multipoint-Inokulator, welcher 0,6 µl einer 1 : 100 verdünnten 18-Stunden-Kultur der Testbakterien übertrug, mit den entsprechenden Testbakterien beimpft. Nach 16 bis 18 Stunden Inkubation bei 37°C wurden die Petrischalen makroskopisch auf Bakterienwachstum untersucht.
(§2) Die niedrigste Konzentration der erfindungsgemäßen Verbindungen, welche das Bakterienwachstum noch vollständig verhinderte, wurde als MIC (Minimum Inhibitory Concentration) angenommen.
(§3) In Tabelle 3 ist die Wirkung (Angabe des MIC in µg/ml) von verschiedenen erfindungsgemäßen Verbindungen gegen folgende Bakterien aufgeführt: Staph. aureus (SG 511), Staph. aureus (285), Staph. aureus (503), Strept. pyogenes (308 A), Strept. pyogenes (77 A), Strept. faecium (D). Tabelle 3

| Structure (SMILES) | MIC [µg/mL] |
| --- | --- |
| COCC1(O)OC(C2CC(C)C(C3(C)CCC(C4(C)CC(C)C5(OC(CC6CCC(C)C(C(C)C(=O)O)O6)CC(OC)C5C)O4)O3)O2)C(C)CC1C (stereo not drawn) [Beispiel 7] | 0.78 (≈ 1.06 µM) |
| CCCCOCC1(O)OC(C2CC(C)C(C3(C)CCC(C4(C)CC(C)C5(OC(CC6CCC(C)C(C(C)C(=O)O)O6)CC(OC)C5C)O4)O3)O2)C(C)CC1C (stereo not drawn) [Beispiel 8] | 1.56 (≈ 2 µM) |

System: Staph. aureus (503)
Assay: as above
Format: cell-based
Conditions: Staphylococcus aureus; Staph. aureus (503); Müller Hinton Agar, 16 to 18 h at 37°C; read-out: MIC
Experimental: as §1, §2, §3

| Structure (SMILES) | MIC [µg/mL] |
| --- | --- |
| COCC1(O)OC(C2CC(C)C(C3(C)CCC(C4(C)CC(C)C5(OC(CC6CCC(C)C(C(C)C(=O)O)O6)CC(OC)C5C)O4)O3)O2)C(C)CC1C (stereo not drawn) [Beispiel 7] | 0.39 (≈ 0.528 µM) |
| CCCCOCC1(O)OC(C2CC(C)C(C3(C)CCC(C4(C)CC(C)C5(OC(CC6CCC(C)C(C(C)C(=O)O)O6)CC(OC)C5C)O4)O3)O2)C(C)CC1C (stereo not drawn) [Beispiel 8] | 0.78 (≈ 0.999 µM) |

System: Staph. aureus (SG 511)
Assay: as above
Format: cell-based
Conditions: Staphylococcus aureus; Staph. aureus (SG 511); Müller Hinton Agar, 16 to 18 h at 37°C; lowest concentration that completely prevents growth; read-out: MIC
Experimental: as §1, §2, §3

| Structure (SMILES) | MIC [µg/mL] |
| --- | --- |
| COCC1(O)OC(C2CC(C)C(C3(C)CCC(C4(C)CC(C)C5(OC(CC6CCC(C)C(C(C)C(=O)O)O6)CC(OC)C5C)O4)O3)O2)C(C)CC1C (stereo not drawn) [Beispiel 7] | 0.78 (≈ 1.06 µM) |
| CCCCOCC1(O)OC(C2CC(C)C(C3(C)CCC(C4(C)CC(C)C5(OC(CC6CCC(C)C(C(C)C(=O)O)O6)CC(OC)C5C)O4)O3)O2)C(C)CC1C (stereo not drawn) [Beispiel 8] | 0.78 (≈ 0.999 µM) |

System: Strept. faecium (D)
Assay: as above
Format: cell-based
Conditions: Enterococcus faecium; Strept. faecium (D); Müller Hinton Agar, 16 to 18 h at 37°C; read-out: MIC
Experimental: as §1, §2, §3

| Structure (SMILES) | MIC [µg/mL] |
| --- | --- |
| COCC1(O)OC(C2CC(C)C(C3(C)CCC(C4(C)CC(C)C5(OC(CC6CCC(C)C(C(C)C(=O)O)O6)CC(OC)C5C)O4)O3)O2)C(C)CC1C (stereo not drawn) [Beispiel 7] | 3.13 (≈ 4.24 µM) |
| CCCCOCC1(O)OC(C2CC(C)C(C3(C)CCC(C4(C)CC(C)C5(OC(CC6CCC(C)C(C(C)C(=O)O)O6)CC(OC)C5C)O4)O3)O2)C(C)CC1C (stereo not drawn) [Beispiel 8] | 3.13 (≈ 4.01 µM) |

System: Strept. pyogenes (308 A)
Assay: as above
Format: cell-based
Conditions: Streptococcus pyogenes; Strept. pyogenes (308 A); Müller Hinton Agar, 16 to 18 h at 37°C; read-out: MIC
Experimental: as §1, §2, §3

| Structure (SMILES) | MIC [µg/mL] |
| --- | --- |
| COCC1(O)OC(C2CC(C)C(C3(C)CCC(C4(C)CC(C)C5(OC(CC6CCC(C)C(C(C)C(=O)O)O6)CC(OC)C5C)O4)O3)O2)C(C)CC1C (stereo not drawn) [Beispiel 7] | 0.39 (≈ 0.528 µM) |
| CCCCOCC1(O)OC(C2CC(C)C(C3(C)CCC(C4(C)CC(C)C5(OC(CC6CCC(C)C(C(C)C(=O)O)O6)CC(OC)C5C)O4)O3)O2)C(C)CC1C (stereo not drawn) [Beispiel 8] | 0.19 (≈ 0.243 µM) |

System: Strept. pyogenes (77 A)
Assay: as above
Format: cell-based
Conditions: Streptococcus pyogenes; Strept. pyogenes (77 A); Müller Hinton Agar, 16 to 18 h at 37°C; read-out: MIC
Experimental: as §1, §2, §3

| Structure (SMILES) | MIC [µg/mL] |
| --- | --- |
| COCC1(O)OC(C2CC(C)C(C3(C)CCC(C4(C)CC(C)C5(OC(CC6CCC(C)C(C(C)C(=O)O)O6)CC(OC)C5C)O4)O3)O2)C(C)CC1C (stereo not drawn) [Beispiel 7] | 0.19 (≈ 0.257 µM) |
| CCCCOCC1(O)OC(C2CC(C)C(C3(C)CCC(C4(C)CC(C)C5(OC(CC6CCC(C)C(C(C)C(=O)O)O6)CC(OC)C5C)O4)O3)O2)C(C)CC1C (stereo not drawn) [Beispiel 8] | 0.098 (≈ 0.125 µM) |

System: Adeno 5
Assay: not given
Format: cell-based
Conditions: HeLa or Vero cells, 72 h CPE, concentration at which about 50 % of the cells survive the infection

| Structure (SMILES) | MHK |
| --- | --- |
| COCC1(O)OC(C2CC(C)C(C3(C)CCC(C4(C)CC(C)C5(OC(CC6CCC(C)C(C(C)C(=O)O)O6)CC(OC)C5C)O4)O3)O2)C(C)CC1C (stereo not drawn) [Beispiel 7] | 0,16 µg/ml |
| CCCCOCC1(O)OC(C2CC(C)C(C3(C)CCC(C4(C)CC(C)C5(OC(CC6CCC(C)C(C(C)C(=O)O)O6)CC(OC)C5C)O4)O3)O2)C(C)CC1C (stereo not drawn) [Beispiel 8] | 0,16 µg/ml |

System: Vaccina
Assay: not given
Format: cell-based
Conditions: HeLa or Vero cells, 72 h CPE, about 50 % of the cells survive

| Structure (SMILES) | MHK |
| --- | --- |
| COCC1(O)OC(C2CC(C)C(C3(C)CCC(C4(C)CC(C)C5(OC(CC6CCC(C)C(C(C)C(=O)O)O6)CC(OC)C5C)O4)O3)O2)C(C)CC1C (stereo not drawn) [Beispiel 7] | 0,49 µg/ml |
| CCCCOCC1(O)OC(C2CC(C)C(C3(C)CCC(C4(C)CC(C)C5(OC(CC6CCC(C)C(C(C)C(=O)O)O6)CC(OC)C5C)O4)O3)O2)C(C)CC1C (stereo not drawn) [Beispiel 8] | 4,44 µg/ml |

System: Herpes I
Assay: not given
Format: cell-based
Conditions: HeLa or Vero cells, 72 h CPE, about 50 % of the cells survive

| Structure (SMILES) | MHK |
| --- | --- |
| COCC1(O)OC(C2CC(C)C(C3(C)CCC(C4(C)CC(C)C5(OC(CC6CCC(C)C(C(C)C(=O)O)O6)CC(OC)C5C)O4)O3)O2)C(C)CC1C (stereo not drawn) [Beispiel 7] | 0,05 µg/ml |
| CCCCOCC1(O)OC(C2CC(C)C(C3(C)CCC(C4(C)CC(C)C5(OC(CC6CCC(C)C(C(C)C(=O)O)O6)CC(OC)C5C)O4)O3)O2)C(C)CC1C (stereo not drawn) [Beispiel 8] | 4,44 µg/ml |

System: Herpes II
Assay: not given
Format: cell-based
Conditions: HeLa or Vero cells, 72 h CPE, about 50 % of the cells survive

| Structure (SMILES) | MHK |
| --- | --- |
| COCC1(O)OC(C2CC(C)C(C3(C)CCC(C4(C)CC(C)C5(OC(CC6CCC(C)C(C(C)C(=O)O)O6)CC(OC)C5C)O4)O3)O2)C(C)CC1C (stereo not drawn) [Beispiel 7] | 0,05 µg/ml |
| CCCCOCC1(O)OC(C2CC(C)C(C3(C)CCC(C4(C)CC(C)C5(OC(CC6CCC(C)C(C(C)C(=O)O)O6)CC(OC)C5C)O4)O3)O2)C(C)CC1C (stereo not drawn) [Beispiel 8] | 0,16 µg/ml |

System: Influenza A
Assay: not given
Format: cell-based
Conditions: HeLa or Vero cells, 72 h CPE, about 50 % of the cells survive

| Structure (SMILES) | MHK |
| --- | --- |
| COCC1(O)OC(C2CC(C)C(C3(C)CCC(C4(C)CC(C)C5(OC(CC6CCC(C)C(C(C)C(=O)O)O6)CC(OC)C5C)O4)O3)O2)C(C)CC1C (stereo not drawn) [Beispiel 7] | 0,05 µg/ml |
| CCCCOCC1(O)OC(C2CC(C)C(C3(C)CCC(C4(C)CC(C)C5(OC(CC6CCC(C)C(C(C)C(=O)O)O6)CC(OC)C5C)O4)O3)O2)C(C)CC1C (stereo not drawn) [Beispiel 8] | 0,05 µg/ml |

System: Paramyxo. III
Assay: not given
Format: cell-based
Conditions: HeLa or Vero cells, 72 h CPE, about 50 % of the cells survive

| Structure (SMILES) | MHK |
| --- | --- |
| CCCCOCC1(O)OC(C2CC(C)C(C3(C)CCC(C4(C)CC(C)C5(OC(CC6CCC(C)C(C(C)C(=O)O)O6)CC(OC)C5C)O4)O3)O2)C(C)CC1C (stereo not drawn) [Beispiel 8] | 4,44 µg/ml |

System: Rhinovirus II
Assay: not given
Format: cell-based
Conditions: Rhino. II; HeLa or Vero cells, 72 h CPE; about 50 % of the cells survive

| Structure (SMILES) | MHK |
| --- | --- |
| COCC1(O)OC(C2CC(C)C(C3(C)CCC(C4(C)CC(C)C5(OC(CC6CCC(C)C(C(C)C(=O)O)O6)CC(OC)C5C)O4)O3)O2)C(C)CC1C (stereo not drawn) [Beispiel 7] | 1,48 µg/ml |
| CCCCOCC1(O)OC(C2CC(C)C(C3(C)CCC(C4(C)CC(C)C5(OC(CC6CCC(C)C(C(C)C(=O)O)O6)CC(OC)C5C)O4)O3)O2)C(C)CC1C (stereo not drawn) [Beispiel 8] | 4,44 µg/ml |

System: HeLa- bzw. Vero-Zellen
Assay: Maximum tolerated dose (DTM) in cell culture
Format: cell-based
Conditions: HeLa or Vero cells
Experimental: Die Prüfsubstanzen wurden in Zellkulturmedium (Dulbecco's MEM) gelöst und in einer geometrischen Verdünnungsreihe, Faktor 3, in Standard-Mikrotiterplatten in 100 µl Zellkulturmedium vorgelegt. Anschließend erfolgte die Zugabe von 100 µl einer Suspension von HeLa- bzw. Vero-Zellen in Medium mit 5 % fötalem Kälberserum in einer Zelldichte von 2 x 10⁵ Zellen/ml. Die Ansätze wurden mit 50 µl einer Suspension des jeweiligen Test-Virus infiziert, die so eingestellt war, daß die Zellen innerhalb von 72 h einen cytopathogenen Effekt (CPE) zeigten. Die Auswertung erfolgte durch mikroskopische Begutachtung des Zellrasens und photometrische Messung der Neutralrotaufnahme (Farbtest nach Finter). Als MHK wurde die Konzentration des Präparats angenommen (µg/ml), bei der etwa 50 % der Zellen die Infektion überlebten.
In Spalte 9 ist die DTM (Dosis Tolerata Maxima) in µg/ml angegeben. Tabelle 4

| Structure (SMILES) | DTM (Dosis Tolerata Maxima) |
| --- | --- |
| COCC1(O)OC(C2CC(C)C(C3(C)CCC(C4(C)CC(C)C5(OC(CC6CCC(C)C(C(C)C(=O)O)O6)CC(OC)C5C)O4)O3)O2)C(C)CC1C (stereo not drawn) [Beispiel 7] | 4,44 µg/ml |
| CCCCOCC1(O)OC(C2CC(C)C(C3(C)CCC(C4(C)CC(C)C5(OC(CC6CCC(C)C(C(C)C(=O)O)O6)CC(OC)C5C)O4)O3)O2)C(C)CC1C (stereo not drawn) [Beispiel 8] | 13,3 µg/ml |
